Experimental data taken from patent US20220073910A1, “A Cross-Linking Approach to Map Small Molecule-RNA Binding Sites in Cells” (priority 2019, published 2022).
Starred links: 1 amine or outer side, 2 acyl side, 3 side chain; linkers in the order of their positions; H or OH if unused. Non-standard residues stand in square brackets, D forms with d. Residues, ends and D or L forms follow the SMILES beside them. *: point of attachment. Biotinyl(3aR,4R,6aS) = O=C1N[C@@H]2[C@@H](CS[C@@H]2CCCCC(=O)*)N1; N(2-Aminoethyl)Gly = O=C(CN(CCN[*:3])[*:1])[*:2]; Chlorambucil = O=C(CCCc1ccc(N(CCCl)CCCl)cc1)*; Gly(N-propargyl) = C#CCNCC(=O)O; NPrGly = CCCNCC(=O)O

Assays:
MCF-10A cells = test: Caspase 3/7 activity (apoptosis) in MCF-10A normal breast epithelial cells; assay type: cell-based; conditions: healthy breast epithelial MCF-10A cells
Experimental: (§1) A—Effects of compounds 1 and 2 (50 nM) on mature miR-96 and pri-miR-96 levels. B—Effects of compounds 1 and 2 (50 nM) on FOXO1 protein expression. C— Profiling of miRNAs predicted to target FOXO1 mRNA by TargetScan in compound 2-treated MDA-MB-231 cells. D—Volcano plot profiling the effect of compound 2 on all miRNAs that are expressed in MDA-MB-231 cells (blue circles are miRNAs predicted to target FOXO1 mRNA by TargetScan). E—Effects of compounds 1, 2, and 3 on Caspase 3/7 activity, indicative of apoptosis, in MDA-MB-231 TNBC cells. F—Effects of compounds 1, 2, and 3 on Caspase 3/7 activity, indicative of apoptosis, in MCF-10A normal breast epithelial cells.
(§2) We next studied the ability of 1 and 2 to trigger apoptosis, i.e., reverse phenotype, in MDA-MB-231 by measuring Caspase activity. […] Compound 3 had no effect on Caspase activity, as expected. […] Thus, the covalent compounds show relative selectivity for cancerous over healthy breast cells.

[1] = system: 373 miRNAs expressed in MDA-MB-231 TNBC cells; test: Unbiased profiling of 373 miRNAs expressed in MDA-MB-231 TNBC cells; assay type: cell-based; conditions: Qiagen miRNA Human miRbase profiler HC
Experimental: as §1
(§3) Since miR-96 suppresses apoptosis in cancer cells by repressing the translation of Forkhead box 01 (FOXO1) transcription factor,^15 the effects of 1, 2, and 3 on FOXO1 protein levels were measured in MDA-MB-231 cells. […] To validate that the increase in FOXO1 levels was mediated by inhibition of miR-96, we studied the effects of 1 and 2 on all 15 miRNAs predicted to target the FOXO1 3′ untranslated region (UTR) by TargetScan (FIG. 3C). […] To further probe 2's selectivity for pri-miR-96, we performed an unbiased profiling experiment on 373 miRNAs expressed in MDA-MB-231 TNBC cells (based on Qiagen miRNA Human miRbase profiler HC).

pri-miR-96 [2] = test: Chem-CLIP-Map-Seq binding site mapping within pri-miR-96 in MDA-MB-231 TNBC cells; assay type: cell-based; conditions: MDA-MB-231 cells, 1000 nM
Text: A—Scheme of amplification approach to identify small molecule binding site in pri-miR-96. B— In cellulis mapping of the binding site for compound 2 within pri-miR-96 in MDA-MB-231 TNBC cells. Percentages indicate the number of sequences observed terminating at the respective nucleotide adjacent to the percentage.
Given the enrichment of pri-miR-96 in the pulled down fraction and 2's pro-apoptotic properties, we mapped 2's binding site within pri-miR-96 in cells. We defined 2's cellular binding site within pri-miR-96. […] After reverse transcription, ssDNA adaptors were ligated to the cDNA, followed by which was cloned into NEB's pminiT 2.0 vector and sequenced. Mirroring the predicted and validated (via nuclease mapping^14) binding site, 2's binding site was localized to nucleotides that are proximal to pri-miR-96's Drosha site (FIG. 4B). In particular, the most occupied binding site observed is a C residue four nucleotides upstream of the UU internal loop bound by 1 (54%; highlighted in red in FIG. 4). Two other reactions sites were observed: (i) a G residue in the GG internal loop that binds 1 (14%); and (ii) a U residue 13 nucleotides upstream of the UU internal loop that is part of the Drosha processing site (24%). To support our cellular mapping experiments, we modeled 2 bound to pri-miR-96 (FIG. 4B). Indeed, the distance between 2's cross-linking module and the most reacted nucleotides match precisely.

[3] = system: miRNAs predicted to target FOXO1 mRNA; test: Profiling of 15 miRNAs predicted by TargetScan to target FOXO1 3' UTR; assay type: cell-based; conditions: MDA-MB-231 cells
Experimental: as §1, §3

pri-miR-96 [4] = conditions: in vitro, cited from earlier work; for pulldown of pri-miR-96 adducts with streptavidin beads: radioactively labeled pri-miR-96 RNA
[5] = system: pri-miR-96 (Drosha processing); test: RT-qPCR of mature miR-96 and pri-miR-96 levels in MDA-MB-231 TNBC cells; assay type: cell-based; conditions: MDA-MB-231 cells, 50 nM
Experimental: as §1

MDA-MB-231 TNBC cells = test: Caspase 3/7 activity (apoptosis) in MDA-MB-231 TNBC cells; assay type: cell-based; conditions: MDA-MB-231 cells
Experimental: as §1, §2

pri-miR-96 [6] = conditions: in cells, cited from earlier work
FOXO1 protein = FOXO1 protein expression in MDA-MB-231 cells; assay type: cell-based; conditions: 50 nM
Experimental: as §1, §3

SMILES | Caspase activity indicative of apoptosis (MCF-10A cells) | selectivity profiling on 373 miRNAs (volcano plot) [1] | sequences terminating at reaction site: C residue four nucleotides upstream of the UU internal loop (pri-miR-96 [2]) | sequences terminating at reaction site: G residue in the GG internal loop (pri-miR-96 [2]) | sequences terminating at reaction site: U residue 13 nucleotides upstream of the UU internal loop (Drosha processing site) (pri-miR-96 [2]) | effect on all 15 miRNAs predicted to target the FOXO1 3' UTR [3] | pulldown of pri-miR-96 adducts with streptavidin beads (pri-miR-96 [4]) | increase in pri-miR-96 abundance [5] | mature miR-96 levels [5] | Caspase activity indicative of apoptosis (MDA-MB-231 TNBC cells) | enrichment of pri-miRNA-96 in the pulled down fraction (pri-miR-96 [6]; compared to sample prior to incubation with streptavidin beads, RT-qPCR) | FOXO1 protein expression (FOXO1 protein) | competition of pri-miR-96 pulldown by 2 (C-Chem-CLIP) (pri-miR-96 [4]; constant 2 (1000 nM), increasing amounts of 1) | competition of pri-miR-96 pulldown (cellular C-Chem-CLIP) (pri-miR-96 [6]; increasing concentration of 1)
CCCN(CC(=O)N(CC(=O)N(CCNC(=O)CCCC[C@H]1SC[C@H]2NC(=O)N[C@H]21)CC(N)=O)Cc1cn(CCCNC(=O)CCCOc2c(C(C)(C)C)cc(-c3nc4cc(N5CCN(C)CC5)ccc4[nH]3)cc2C(C)(C)C)nn1)C(=O)CN(CCNC(=O)CCCc1ccc(N(CCCl)CCCl)cc1)C(=O)CCCOc1cccc(-c2nc3ccc(-c4nc5cc(N6CCN(C)CC6)ccc5[nH]4)cc3[nH]2)c1 [compound 2] | neither 1 nor 2 had any effect | miR-96 was the most affected | 54% | 14% | 24% | Only miR-96 was inhibited significantly | Specific engagement | ca. 1.5 fold | reduced to a similar extent as the parent compound 1 | increased Caspase activity | 5 fold | enhanced the expression of FOXO1 protein | – | –
CCCN(CC(=O)N(CCC)CC(=O)N(CC(N)=O)Cc1cn(CCCNC(=O)CCCOc2c(C(C)(C)C)cc(-c3nc4cc(N5CCN(C)CC5)ccc4[nH]3)cc2C(C)(C)C)nn1)C(=O)CCCOc1cccc(-c2nc3ccc(-c4nc5cc(N6CCN(C)CC6)ccc5[nH]4)cc3[nH]2)c1 [compound 1, Targaprimir-96] | neither 1 nor 2 had any effect | – | – | – | – | Only miR-96 was inhibited significantly | – | ca. 1.5 fold | reduced | increased Caspase activity | – | enhanced the expression of FOXO1 protein | 1-dependent decrease in the amount of RNA pulled down by 2 | decreased as a function of the concentration of 1
C#CCN(CC(=O)N(CCNC(=O)CCCC[C@H]1SC[C@H]2NC(=O)N[C@H]21)CC(N)=O)C(=O)CN(CCC)C(=O)CN(CCNC(=O)CCCc1ccc(N(CCCl)CCCl)cc1)C(C)=O [compound 3] (Ac-[N(2-Aminoethyl)Gly](Chlorambucil)[NPrGly][Gly(N-propargyl)][N(2-Aminoethyl)Gly](Biotinyl(3aR,4R,6aS))-NH2) | – | – | – | – | – | – | no pulldown | – | No effect | no effect | – | – | – | –
